Patent publication US20260184663A1, “INDENE COMPOUNDS, PHARMACEUTICAL COMPOSITIONS THEREOF, AND THEIR THERAPEUTIC APPLICATIONS” (NucMito Pharmaceuticals co. Ltd., priority 2022, published 2026)

What was measured:
Type in all cases: cell-based
[1] = tested on: B16F10 (malignant melanoma); experiment: Antiproliferative activity (CCK-8 cell viability), B16F10; settings: Mus musculus, 72 h; for inhibition at 3.3 µM: B16-F10, Compound concentration: 3.3 μM; for inhibition at 3.3 µM / inhibition at 10 µM: read-out: Antiproliferative activity in cancerous cells, B16F10 (inhibition of cell growth); for inhibition at 10 µM: B16-F10, Compound concentration: 10 μM
In short: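 B16F10 melanoma cells grown in DMEM with 10% FBS were plated in 96-well plates at 2,000-5,000 cells/well. After attachment they were exposed to compound in medium for 72 h at 37° C. CCK-8 solution (10 μL) was then added, and after 4 h at 37° C absorbance was read at 450 nm.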

[2] = tested on: MDA-MB-231 (breast cancer); experiment: Antiproliferative activity (CCK-8 cell viability), MDA-MB-231; settings: Homo sapiens, 72 h, read-out: Antiproliferative activity in cancerous cells, MDA-MB-231 (inhibition of cell growth); for inhibition at 3.3 µM: Compound concentration: 3.3 μM; for inhibition at 10 µM: Compound concentration: 10 μM
In short: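 MDA-MB-231 breast cancer cells, grown in DMEM with 10% FBS, were plated in 96-well plates at 2,000-5,000 cells/well. Once attached, they were exposed to compound and incubated at 37° C. for 72 h. Viability was then measured with CCK-8 (10 μL per well, 4 h at 37° C.) by absorbance at 450 nm, relative to DMSO vehicle wells.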

HeLa (cervical cancer) = experiment: Antiproliferative activity (CCK-8 cell viability), HeLa; settings: Homo sapiens, 72 h, read-out: Antiproliferative activity in cancerous cells, HELA (inhibition of cell growth); for inhibition at 3.3 µM: Compound concentration: 3.3 μM; for inhibition at 10 µM: Compound concentration: 10 μM
In short: (§1)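 Cells grown in DMEM (HepG2, SW480), MEM (HeLa) or F-12K (A549), each with 10% FBS, then exposed to compound at 3.3, 10 or 30 μM for 72 h at 37 °C. CCK-8 absorbance at 450 nm; viability expressed as percent of DMSO-treated cells, graded as growth inhibition bands.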

HepG2 (liver cancer) = experiment: Antiproliferative activity (CCK-8 cell viability), HepG2; settings: Homo sapiens, 72 h; for inhibition at 3.3 µM: Compound concentration: 3.3 μM; for inhibition at 3.3 µM / inhibition at 10 µM: read-out: Antiproliferative activity in cancerous cells, HepG2 (inhibition of cell growth); for inhibition at 10 µM: Compound concentration: 10 μM
In short: as §1

[3] = tested on: A549 (lung adenocarcinoma); experiment: Antiproliferative activity (CCK-8 cell viability), A549; settings: Homo sapiens, 72 h; for inhibition at 3.3 µM: Compound concentration: 3.3 μM; for inhibition at 3.3 µM / inhibition at 10 µM: read-out: Antiproliferative activity in cancerous cells, A549 (inhibition of cell growth); for inhibition at 10 µM: Compound concentration: 10 μM
In short: as §1

[4] = tested on: A431 (epidermoid carcinoma); experiment: Antiproliferative activity (CCK-8 cell viability), A431; settings: Homo sapiens, 72 h; for inhibition at 3.3 µM: A-431, Compound concentration: 3.3 μM; for inhibition at 3.3 µM / inhibition at 10 µM: read-out: Antiproliferative activity in cancerous cells, A431 (inhibition of cell growth); for inhibition at 10 µM: A-431, Compound concentration: 10 μM
In short: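 A431 epidermoid carcinoma cells grown in DMEM with 10% FBS were plated at 2,000-5,000 cells/well in 96-well plates. After attachment they were exposed to compound at 3.3 μM, 10 μM, or 30 μM for 72 h at 37° C. Viability was then assessed by CCK-8 against DMSO vehicle-treated wells.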

SW480 (colon cancer) = experiment: Antiproliferative activity (CCK-8 cell viability), SW480; settings: Homo sapiens, 72 h; for inhibition at 3.3 µM: Compound concentration: 3.3 μM; for inhibition at 3.3 µM / inhibition at 10 µM: read-out: Antiproliferative activity in cancerous cells, SW480 (inhibition of cell growth); for inhibition at 10 µM: Compound concentration: 10 μM
In short: as §1

[5] = tested on: alpha-smooth muscle actin (α-SMA); experiment: Inhibition of TGF-β induced expression of alpha-smooth muscle actin (α-SMA) in CFSC cells (western blot); settings: compound at 10 μM, TGF-β (10 ng/mL), 24 hours, band intensity vs TGF-β only
In short: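 CFSC hepatic stellate cells in serum-free DMEM treated 24 h at 37 °C with compound at 10 μM plus TGF-β (10 ng/mL). α-SMA measured by Western blot with β-actin, ECL detection, densitometry. Percent inhibition is decrease in band intensity versus TGF-β-only cells.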

CC1=C(CC(=O)O)c2cc(F)ccc2/C1=C\c1ccccc1OCc1ccccc1 [B28, (Z)-2-(1-(2-(Benzyloxy)benzylidene)-5-fluoro-2-methyl-1H-inden-3-yl)acetic acid]
30 to 50%: inhibition at 10 µM [1] | inhibition at 3.3 µM [2] | inhibition at 3.3 µM [3] | inhibition at 3.3 µM (SW480 (colon cancer))
< 30%: inhibition at 3.3 µM [1]
≥ 50%: inhibition at 10 µM [2] | inhibition at 3.3 µM (HeLa (cervical cancer)) | inhibition at 10 µM (HeLa (cervical cancer)) | inhibition at 3.3 µM (HepG2 (liver cancer)) | inhibition at 10 µM (HepG2 (liver cancer)) | inhibition at 10 µM [3] | inhibition at 3.3 µM [4] | inhibition at 10 µM [4] | inhibition at 10 µM (SW480 (colon cancer))
> 80%: inhibition at 10 µM [5]

CCc1ccc2c(c1)C(CC(=O)O)=C(C)/C2=C/c1cccc(Oc2ccccc2)c1 [C18, (Z)-2-(5-Ethyl-2-methyl-1-(3-phenoxybenzylidene)-1H-inden-3-yl)acetic acid]
30 to 50%: inhibition at 3.3 µM [2] | inhibition at 10 µM (HeLa (cervical cancer)) | inhibition at 3.3 µM (HepG2 (liver cancer)) | inhibition at 3.3 µM [3]
< 30%: inhibition at 3.3 µM (HeLa (cervical cancer)) | inhibition at 10 µM [5]
≥ 50%: inhibition at 3.3 µM [1] | inhibition at 10 µM [1] | inhibition at 10 µM [2] | inhibition at 10 µM (HepG2 (liver cancer)) | inhibition at 10 µM [3] | inhibition at 3.3 µM [4] | inhibition at 10 µM [4] | inhibition at 3.3 µM (SW480 (colon cancer)) | inhibition at 10 µM (SW480 (colon cancer))

CC1=C(CC(=O)O)c2ccc(F)cc2/C1=C\c1cccc(Oc2ccccc2)c1 [C16, (Z)-2-(6-Fluoro-2-methyl-1-(3-phenoxybenzylidene)-1H-inden-3-yl)acetic acid]
> 80%: inhibition at 10 µM [5]
≥ 50%: inhibition at 10 µM [1] | inhibition at 3.3 µM [2] | inhibition at 3.3 µM (HepG2 (liver cancer)) | inhibition at 10 µM (HepG2 (liver cancer)) | inhibition at 3.3 µM [4] | inhibition at 10 µM [4]
30 to 50%: inhibition at 10 µM [2] | inhibition at 10 µM [3]
< 30%: inhibition at 3.3 µM [1] | inhibition at 3.3 µM (HeLa (cervical cancer)) | inhibition at 10 µM (HeLa (cervical cancer)) | inhibition at 3.3 µM [3] | inhibition at 3.3 µM (SW480 (colon cancer)) | inhibition at 10 µM (SW480 (colon cancer))

O=C(O)CC1=C/C(=C/c2cccc(COc3ccccc3)c2)c2ccc(F)cc21 [A8, (Z)-2-(5-Fluoro-1-(3-(phenoxymethyl)benzylidene)-1H-inden-3-yl)acetic acid]
30 to 50%: inhibition at 3.3 µM [1] | inhibition at 3.3 µM [2] | inhibition at 3.3 µM (HepG2 (liver cancer)) | inhibition at 10 µM (HepG2 (liver cancer)) | inhibition at 3.3 µM [3] | inhibition at 10 µM [4] | inhibition at 10 µM (SW480 (colon cancer))
≥ 50%: inhibition at 10 µM [1] | inhibition at 10 µM [2] | inhibition at 3.3 µM (HeLa (cervical cancer)) | inhibition at 10 µM (HeLa (cervical cancer)) | inhibition at 10 µM [3]
> 80%: inhibition at 10 µM [5]
< 30%: inhibition at 3.3 µM [4] | inhibition at 3.3 µM (SW480 (colon cancer))

O=C(O)CC1=C/C(=C/c2cccc(Oc3ccccc3)c2)c2cc(OCC(F)(F)F)ccc21 [C15, (Z)-2-(1-(3-Phenoxybenzylidene)-6-(2,2,2-trifluoroethoxy)-1H-inden-3-yl)acetic acid]
30 to 50%: inhibition at 30 µM ([1]; B16-F10, Compound concentration: 30 μM, read-out: Antiproliferative activity in cancerous cells, B16F10) | inhibition at 3.3 µM [2] | inhibition at 10 µM (HeLa (cervical cancer)) | inhibition at 30 µM (HepG2 (liver cancer); Compound concentration: 30 μM, read-out: Antiproliferative activity in cancerous cells, HepG2)
≥ 50%: inhibition at 10 µM [2]
< 30%: inhibition at 3.3 µM [1] | inhibition at 10 µM [1] | inhibition at 3.3 µM (HeLa (cervical cancer)) | inhibition at 3.3 µM (HepG2 (liver cancer)) | inhibition at 10 µM (HepG2 (liver cancer)) | inhibition at 3.3 µM [3] | inhibition at 10 µM [3] | inhibition at 30 µM ([3]; Compound concentration: 30 μM, read-out: Antiproliferative activity in cancerous cells, A549) | inhibition at 3.3 µM [4] | inhibition at 10 µM [4] | inhibition at 30 µM ([4]; A-431, Compound concentration: 30 μM, read-out: Antiproliferative activity in cancerous cells, A431) | inhibition at 3.3 µM (SW480 (colon cancer)) | inhibition at 10 µM (SW480 (colon cancer)) | inhibition at 30 µM (SW480 (colon cancer); Compound concentration: 30 μM, read-out: Antiproliferative activity in cancerous cells, SW480) | inhibition at 10 µM [5]

CC1=C(CC(=O)O)c2ccc(F)cc2/C1=C\c1cccc(COc2ccccc2)c1 [B10, (Z)-2-(6-Fluoro-2-methyl-1-(3-(phenoxymethyl)benzylidene)-1H-inden-3-yl)-acetic acid]
30 to 50%: inhibition at 3.3 µM [2] | inhibition at 3.3 µM (HepG2 (liver cancer))
> 80%: inhibition at 10 µM [5]
≥ 50%: inhibition at 10 µM [1] | inhibition at 10 µM [2] | inhibition at 10 µM (HepG2 (liver cancer)) | inhibition at 10 µM [3] | inhibition at 10 µM [4]
< 30%: inhibition at 3.3 µM [1] | inhibition at 3.3 µM (HeLa (cervical cancer)) | inhibition at 10 µM (HeLa (cervical cancer)) | inhibition at 3.3 µM [3] | inhibition at 3.3 µM [4] | inhibition at 3.3 µM (SW480 (colon cancer)) | inhibition at 10 µM (SW480 (colon cancer))

CCCC1=C(CC(=O)O)c2cc(F)ccc2/C1=C\c1ccc(Oc2ccc(F)cc2)cc1 [C8, (Z)-2-(5-Fluoro-1-(4-(4-fluorophenoxy)benzylidene)-2-propyl-1H-inden-3-yl)-acetic acid]
≥ 50%: inhibition at 10 µM [1] | inhibition at 3.3 µM [2] | inhibition at 10 µM [2] | inhibition at 3.3 µM (HeLa (cervical cancer)) | inhibition at 10 µM (HeLa (cervical cancer)) | inhibition at 3.3 µM (HepG2 (liver cancer)) | inhibition at 10 µM (HepG2 (liver cancer)) | inhibition at 3.3 µM [3] | inhibition at 10 µM [3] | inhibition at 10 µM [4] | inhibition at 10 µM (SW480 (colon cancer))
> 80%: inhibition at 10 µM [5]
30 to 50%: inhibition at 3.3 µM [1]
< 30%: inhibition at 3.3 µM [4] | inhibition at 3.3 µM (SW480 (colon cancer))

O=C(O)CC1=C(CC2CCCC2)/C(=C/c2ccc(Oc3ccc(F)cc3)cc2)c2ccc(F)cc21 [C7, (Z)-2-(2-(Cyclopentylmethyl)-5-fluoro-1-(4-(4-fluorophenoxy)benzylidene)-1H-inden-3-yl)acetic acid]
30 to 50%: inhibition at 3.3 µM (HepG2 (liver cancer))
> 80%: inhibition at 10 µM [5]
≥ 50%: inhibition at 3.3 µM [1] | inhibition at 10 µM [1] | inhibition at 3.3 µM [2] | inhibition at 10 µM [2] | inhibition at 3.3 µM (HeLa (cervical cancer)) | inhibition at 10 µM (HeLa (cervical cancer)) | inhibition at 10 µM (HepG2 (liver cancer)) | inhibition at 3.3 µM [3] | inhibition at 10 µM [3] | inhibition at 3.3 µM [4] | inhibition at 10 µM [4] | inhibition at 3.3 µM (SW480 (colon cancer)) | inhibition at 10 µM (SW480 (colon cancer))

COc1ccc(/C=C2/C(C)=C(CC(=O)O)c3cc(F)ccc32)c(OCc2ccccc2)c1 [B29, (Z)-2-(1-(2-(Benzyloxy)-4-methoxybenzylidene)-5-fluoro-2-methyl-1H-inden-3-yl)acetic acid]
≥ 50%: inhibition at 10 µM [1] | inhibition at 10 µM (HeLa (cervical cancer)) | inhibition at 10 µM (HepG2 (liver cancer)) | inhibition at 10 µM [4]
< 30%: inhibition at 3.3 µM [1] | inhibition at 3.3 µM (HeLa (cervical cancer)) | inhibition at 3.3 µM (HepG2 (liver cancer)) | inhibition at 3.3 µM [3] | inhibition at 10 µM [3] | inhibition at 3.3 µM [4] | inhibition at 3.3 µM (SW480 (colon cancer)) | inhibition at 10 µM (SW480 (colon cancer))
> 80%: inhibition at 10 µM [5]
30 to 50%: inhibition at 3.3 µM [2] | inhibition at 10 µM [2]
